Assay results from ChEMBL document CHEMBL1240417, “QSAR studies of bioactivities of 1-(azacyclyl)-3-arylsulfonyl-1H-pyrrolo[2,3-b]pyridines as 5-HT6 receptor ligands using physicochemical descriptors and MLR and ANN-modeling” (Eur J Med Chem, 2010).

Biological target: 5-hydroxytryptamine receptor 6 (Homo sapiens, UniProt P50406)
Test: Binding affinity to 5HT6 receptor

5-hydroxytryptamine receptor 6, sequence (P50406 whole entry): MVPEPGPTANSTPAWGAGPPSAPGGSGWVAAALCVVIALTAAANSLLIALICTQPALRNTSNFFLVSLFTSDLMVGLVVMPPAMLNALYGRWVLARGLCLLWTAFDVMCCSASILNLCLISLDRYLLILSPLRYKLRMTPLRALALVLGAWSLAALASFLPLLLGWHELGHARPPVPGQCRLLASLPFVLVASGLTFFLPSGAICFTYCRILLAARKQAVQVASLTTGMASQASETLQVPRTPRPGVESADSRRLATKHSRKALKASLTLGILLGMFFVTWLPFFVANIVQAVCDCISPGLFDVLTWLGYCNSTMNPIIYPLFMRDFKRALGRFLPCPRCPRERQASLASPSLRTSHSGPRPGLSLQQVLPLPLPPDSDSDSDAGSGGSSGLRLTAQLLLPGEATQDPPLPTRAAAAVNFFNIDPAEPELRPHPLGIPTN

SMILES | Ki [nM]
CCN1CCC(n2cc(S(=O)(=O)c3c(Cl)nc4sccn34)c3cccnc32)C1 (centres undefined) | 1.41
CCN1CCCC(n2cc(S(=O)(=O)c3ccc(Cl)cc3)c3cccnc32)C1 (centres undefined) | 33.1
CC(C)N1CCCC(n2cc(S(=O)(=O)c3c(Cl)nc4sccn34)c3cccnc32)C1 (centres undefined) | 1.7
CN1CCCC(n2cc(S(=O)(=O)c3c(Cl)nc4sccn34)c3cccnc32)C1 (centres undefined) | 2

Molecules with a lower Ki, results first:

Ki [nM] | SMILES
1 | O=S(=O)(c1ccc(Cl)s1)c1cn(C2CCNC2)c2ncccc12 (centres undefined)
1 | O=S(=O)(c1cn(C2CCNC2)c2ncccc12)c1c(Cl)nc2sccn12 (centres undefined)
0.794 | CN1CCC(n2cc(S(=O)(=O)c3c(Cl)nc4sccn34)c3cccnc32)C1 (centres undefined)
0.708 | CCN1CCCC(n2cc(S(=O)(=O)c3c(Cl)nc4sccn34)c3cccnc32)C1 (centres undefined)
0.708 | O=S(=O)(c1cn(C2CCCNC2)c2ncccc12)c1c(Cl)nc2sccn12 (centres undefined)
